Test results reported in ChEMBL document CHEMBL1201862, “PubChem BioAssay data set” (2004).
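Exposure lasted 48 hours, with cells grown in 96-well plates and compounds tested at five concentrations. The concentration for 50% growth inhibition is given as GI50.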 Active and inactive are the calls of the source. No stated cut-off is given here; in the data, active = GI50 up to about 1.1 µM and inactive = higher.

Experiments:
Assay in all cases: growth of human tumour cells (NCI), 48 h
[1] = test system: HL-60
[2] = test system: SNB-75
[3] = test system: MCF7
[4] = test system: EKVX
[5] = test system: HCT-116
[6] = test system: OVCAR-5
[7] = test system: KM12
[8] = test system: OVCAR-3
[9] = test system: SNB-19
[10] = test system: Hs-578T
[11] = test system: CAKI-1
[12] = test system: SK-OV-3
[13] = test system: K562
[14] = test system: M14
[15] = test system: SF-295
[16] = test system: SK-MEL-2
[17] = test system: MOLT-4
[18] = test system: HOP-92
[19] = test system: SF-268
[20] = test system: PC-3

Row | SMILES | GI50 [1] | GI50 [2] | GI50 [3] | GI50 [4] | GI50 [5] | GI50 [6] | GI50 [7] | GI50 [8] | GI50 [9] | GI50 [10] | GI50 [11] | GI50 [12] | GI50 [13] | GI50 [14] | GI50 [15] | GI50 [16] | GI50 [17] | GI50 [18] | GI50 [19] | GI50 [20]
1 | C1=N\CCNCCNCC/N=C\c2ccc(cc2)OCc2cccc(n2)COc2ccc/1cc2 | 67.9 µM (inactive) | 47.1 µM (inactive) | 29.8 µM (inactive) | > 100 µM (inactive) | > 100 µM (inactive) | > 100 µM (inactive) | 33.2 µM (inactive) | > 100 µM (inactive) | > 100 µM (inactive) | 99.3 µM (inactive) | > 100 µM (inactive) | > 100 µM (inactive) | 34.1 µM (inactive) | > 100 µM (inactive) | > 100 µM (inactive) | > 100 µM (inactive) | 29 µM (inactive) | > 100 µM (inactive) | 83.6 µM (inactive) | 79.4 µM (inactive)
2 | Cn1c(=S)c2nc(SCCN3CCCC3)[nH]c2n(C)c1=O | > 100 µM (inactive) | > 100 µM (inactive) | > 100 µM (inactive) | 76 µM (inactive) | > 100 µM (inactive) | > 100 µM (inactive) | > 100 µM (inactive) | > 100 µM (inactive) | > 100 µM (inactive) | > 100 µM (inactive) | > 100 µM (inactive) | > 100 µM (inactive) | > 100 µM (inactive) | > 100 µM (inactive) | > 100 µM (inactive) | > 100 µM (inactive) | > 100 µM (inactive) | > 100 µM (inactive) | > 100 µM (inactive) | > 100 µM (inactive)
3 | C(=N\NC1=NCCN1)/c1ccc(-c2cn3cc(/C=N/NC4=NCCN4)ccc3n2)cc1 | 4.48 µM (inactive) | > 100 µM (inactive) | 2.2 µM (inactive) | > 50.4 µM (inactive) | 10.4 µM (inactive) | 64.3 µM (inactive) | > 44 µM (inactive) | > 39.4 µM (inactive) | > 43.1 µM (inactive) | > 87.3 µM (inactive) | 22 µM (inactive) | > 100 µM (inactive) | 14.6 µM (inactive) | > 32.7 µM (inactive) | > 44.8 µM (inactive) | > 100 µM (inactive) | 5.35 µM (inactive) | 18.8 µM (inactive) | 9.79 µM (inactive) | 22.9 µM (inactive)
4 | Cc1ccc([C@H]2CC(=O)C[C@H](c3ccc(C)cc3)C23C(=O)c2ccccc2C3=O)cc1 | 11 µM (inactive) | 15.8 µM (inactive) | 17 µM (inactive) | > 100 µM (inactive) | 34.6 µM (inactive) | > 100 µM (inactive) | > 100 µM (inactive) | 41.9 µM (inactive) | 26.9 µM (inactive) | 19.9 µM (inactive) | 68.2 µM (inactive) | 31.6 µM (inactive) | 23.3 µM (inactive) | 27.8 µM (inactive) | 21.1 µM (inactive) | 31.2 µM (inactive) | 27 µM (inactive) | 13.6 µM (inactive) | 23 µM (inactive) | 14.9 µM (inactive)
5 | CC1N(O)C(c2ccccc2)C(c2ccccc2)=[N+]1[O-] (centres undefined) | > 100 µM (inactive) | 84.3 µM (inactive) | > 100 µM (inactive) | > 100 µM (inactive) | > 100 µM (inactive) | > 100 µM (inactive) | > 100 µM (inactive) | > 100 µM (inactive) | > 100 µM (inactive) | > 100 µM (inactive) | > 100 µM (inactive) | > 100 µM (inactive) | > 100 µM (inactive) | > 100 µM (inactive) | > 100 µM (inactive) | > 100 µM (inactive) | > 100 µM (inactive) | > 100 µM (inactive) |  | > 100 µM (inactive)
6 | COc1cc2c(cc1O)-c1c(OC)c(O)cc3c1C(C2)N(C)CC3 (centres undefined) | > 100 µM (inactive) | > 100 µM (inactive) | > 100 µM (inactive) | > 100 µM (inactive) | > 100 µM (inactive) | > 100 µM (inactive) | > 100 µM (inactive) | > 100 µM (inactive) | > 100 µM (inactive) | > 100 µM (inactive) | > 100 µM (inactive) | > 100 µM (inactive) |  | > 100 µM (inactive) | > 100 µM (inactive) | > 100 µM (inactive) | > 100 µM (inactive) | > 100 µM (inactive) | > 100 µM (inactive) | > 100 µM (inactive)
7 | COC(=O)/C(=N/NC(N)=O)C(C(=O)C(=O)Nc1ccc(C)cc1)c1nc2ccc(C(=O)c3ccccc3)cc2nc1O (centres undefined) | 67.9 µM (inactive) | 39.7 µM (inactive) | 91.4 µM (inactive) | 33.4 µM (inactive) | > 100 µM (inactive) | > 100 µM (inactive) | 66.7 µM (inactive) | > 100 µM (inactive) | > 100 µM (inactive) | 67 µM (inactive) | 88.9 µM (inactive) | > 100 µM (inactive) |  | > 100 µM (inactive) | > 100 µM (inactive) | > 100 µM (inactive) | 50.4 µM (inactive) | 30.3 µM (inactive) | > 100 µM (inactive) | > 100 µM (inactive)
8 | COc1cc2cc(C(=O)N3CC(COS(C)(=O)=O)c4c3cc(N)c3ccccc43)[nH]c2c(OC)c1OC (centres undefined) | < 0.01 µM (active) | < 0.01 µM (active) | < 0.0122 µM (active) | 0.0216 µM (active) | 0.0108 µM (active) | 0.021 µM (active) | 0.0194 µM (active) | 0.0404 µM (active) | < 0.0491 µM (active) | 0.252 µM (active) | 0.0211 µM (active) | 0.0444 µM (active) |  | 0.0169 µM (active) | 0.0195 µM (active) | 0.0716 µM (active) | 0.0149 µM (active) | < 0.0266 µM (active) | 0.0188 µM (active) | 0.0422 µM (active)
9 | CCOC(=O)/C=C/CC(C)(C)CCOC(C)=O | > 10 µM (inactive) | > 10 µM (inactive) | > 10 µM (inactive) |  | > 10 µM (inactive) | > 10 µM (inactive) | > 10 µM (inactive) | > 10 µM (inactive) | > 10 µM (inactive) | > 10 µM (inactive) | > 10 µM (inactive) | > 10 µM (inactive) | > 10 µM (inactive) | > 10 µM (inactive) | > 10 µM (inactive) | > 10 µM (inactive) | > 10 µM (inactive) | > 10 µM (inactive) | > 10 µM (inactive) | > 10 µM (inactive)
10 | CCOC(=O)C(C(=O)OCC)=C1SC(=N\c2ccccc2)/C(=N/c2ccccc2)N1c1ccccc1 | > 100 µM (inactive) | > 100 µM (inactive) | 75.3 µM (inactive) | > 100 µM (inactive) | > 100 µM (inactive) | > 100 µM (inactive) | > 100 µM (inactive) | 35.8 µM (inactive) | > 100 µM (inactive) | 90.8 µM (inactive) | > 100 µM (inactive) | > 100 µM (inactive) | 4.48 µM (inactive) |  | 27 µM (inactive) | > 100 µM (inactive) | 13.3 µM (inactive) | 54 µM (inactive) | 48.3 µM (inactive) | 58.7 µM (inactive)
